Patent publication US7319094B2, “Increased and sustained in vivo gene expression using a nucleic acid, histone and amphipathic compound composition” (Rhode Island Hospital, priority 2001, dated 2008)

Assays:
GAPDH = GAPDH immunoreactivity in AD7c-NTP-transfected PNET2 cells, MICE assay; format: cell-based, human; settings: IPTG 3 mM
Text: The MICE assay is known in the art (e.g., as described by de la Monte et al., 1999, Biotechniques 26:107301076). The assay is a rapid and sensitive method for quantifying immunoreactivity in 96-well micro-cultures and combines the advantages of the enzyme-linked immunosorbant assay with immunocytochemical staining to permit sensitive in situ quantification of protein expression with values normalized to cell density. The cells were fixed in Histochoice (Amresco, Solon, Ohio), permeabilized with 0.05% saponin in Tris-buffered saline (50 mM Tris, pH 7.5, 0.9% NaCl; TBS), and blocked with Superblock-TBS (Pierce, Rockford, Ill.). […] Immunoreactivity was detected using horseradish peroxidase conjugated secondary antibody (Pierce, Rockford, Ill.) and the TMB soluble peroxidase substrate (Pierce, Rockford, Ill.). Absorbances were measured at 450 nm using a Spectracount plate reader.
To compare the levels of protein expression it was necessary to correct for differences in cell density. […] The absorbances (560 nm) were measured using a Spectracount plate reader (Packard Instrument Company, Meriden, Conn.). The MICE index was calculated from the ratio of the absorbances measured for immunoreactivity and cell density. Coomassie blue absorbance increases linearly with cell density between 1×10^4 and 5×10^5 cells per well. Eight or 16 replicate culture wells were analyzed in each experiment. […]

AD7c-NTP = AD7c-NTP expression in stably transfected PNET2 cells (LacSwitch II inducible system), Western blot / MICE assay; format: cell-based, human
Text: Prior to the invention, cells stably transfected with AD7c-NTP could not be maintained because of progressive cell death. Therefore, an inducible system of AD7c-NTP expression was established using the LacSwitch II mammalian expression vector (Stratagene, La Jolla, Calif.). PNET2 human CNS neuronal cells were stably transfected with the pCMVLacII vector in which the Lac repressor protein driven by a CMV promoter. The Lac repressor protein is targeted to the nucleus by the nuclear localization sequence. […]
Standard Western blot assays wew used to measure cellular levels of p53, Bcl-2, p21/Waf1, phospho-tau, tau, c-fos, NTP, and activated (phosphorylated) forms of Erk mitogen activated protein (MAP) kinase, amino-terminal c-jun-activated kinase (pJNK), and p38/HOG1. […] Protein concentrations were measured using the BCA assay (Pierce, Rockford, Ill.). Samples containing 60 μg of protein were fractionated by sodium dodecyl sulfate polyacrylamide gel electrophoresis (SDS-PAGE), then transferred to PVDF membranes, and analyzed by Western immunoblotting. Immunoreactivity was detected with horseradish peroxidase conjugated secondary IgG and PicoWest enhanced chemiluminescence reagents (Pierce Chemical Company, Rockford, Ill.). CAT activity was measured using known methods. […]

- levels of GAPDH (MICE assay) (GAPDH): no change
- increase in N314-immunoreactive NTP (MICE assay) (AD7c-NTP; IPTG 3 mM, 24 hours of induction): greater than five-fold
Structure (SMILES): CC(C)S[C@@H]1O[C@H](CO)[C@H](O)[C@H](O)[C@H]1O [IPTG, Isopropyl-1-[…]-D-thiogalactopyranoside]
- optimum concentration for inducing gene expression (AD7c-NTP; PNET2 clones): 3 mM
